The conditions of data set [1]: 298.15 K; 101.33 kPa; Liquid; Pycnometric method.
A short description of data set [2]: refractive index (Na D-line) (dimensionless). The note with it: 298.15 K; 101.33 kPa; Liquid; Standard Abbe refractometry.

Numbers after ± are expanded uncertainties.

In general, mass density refers to mass per unit of volume. As usually defined, the refractive index is the speed of light in vacuum divided by its phase velocity in the sample. For the molecule `CN1CCN(C)C1=O` [1,3-dimethyl-2-imidazolidinone], the mass density in data set [1] was determined as 1052.25 ± 1.1 kg/m3. Moreover, the refractive index in data set [2] was found to be 1.4712 ± 0.0008.

These data come from the NIST ThermoML archive (doi:10.1016/j.tca.2008.07.001).
